From patent publication US9399032B2, “Methods and compositions for treating degenerative and ischemic disorders” (The General Hospital Corporation, priority 2009, dated 2016)
Structures can show the parent of a compound that is named as a salt.

Test system: MCH58 fibroblasts
Test: Mass spectrometry-based metabolite profiling
Format: cell-based, human
Method: Metabolite profiling was performed on MCH58 fibroblasts following treatment with 50 μM meclizine or vehicle control for six hours, using methods similar to those previously described, see […] et al., Mol Syst Biol 4:214 (2008). […] For assessment of media metabolites, 500 μl of spent media or baseline media (prior to addition to cells) were sampled from the culture dish and immediately added to 500 μl of pre-cooled (-80° C.) methanol extraction solution (80% methanol, 20% H2O) to allow for rapid quenching of metabolism and extraction of metabolites. After 20 minutes at 4° C., samples were centrifuged at 14,000 g for 10 minutes. 50 μl of the supernatant was collected, re-diluted 1:20 with methanol extraction solution, and 100 μl of the final solution evaporated under nitrogen. Samples were reconstituted in 60 μl of HPLC-grade water and metabolite levels determined, as described below. For assessment of intracellular metabolites, media was aspirated from the above tissue culture plates and cells gently washed with 4 mL of PBS, to ensure complete removal of residual media metabolites. The PBS was removed and cellular metabolism quenched with immediate addition of 1 mL of pre-cooled (-80° C.) methanol extraction solution (80% methanol, 20% H2O). Cells were scraped, collected in extraction solution, vortexed and the samples centrifuged as described above for preparation of media samples. 100 μl of the supernatant was collected, re-diluted 1:1 with methanol extraction solution, and 100 μl of the final solution evaporated under nitrogen. Samples were reconstituted in 60 μl of HPLC-grade water and metabolites assessed. Six biological replicates were assessed for each group. Analyses of endogenous metabolites were performed using a liquid chromatography tandem mass spectrometry (LC-MS) system composed of a 4000 QTRAP triple quadrupole mass spectrometer (Applied Biosystems/SCIEX) coupled to three Agilent 1100 binary HPLC pumps (Agilent Technologies) and an HTS PAL autosampler (LEAP Technologies) equipped with three injection ports and a column selector valve. Three multiplexed chromatographic methods were configured for the analyses of each sample: LC method 1 used a Luna Phenyl-Hexyl column (Phenomenex) eluted with a linear gradient of water/acetonitrile/acetic acid (initial proportions 100/0/0.001, final proportions 10/90/0.001); […] LC method 3 used a Synergi Polar-RP column (Phenomenex) with reversed phase, gradient elution using 5% acetonitrile/5 mM ammonium acetate (mobile phase A) and 95% acetonitrile/5 mM ammonium acetate (mobile phase B). MS data were acquired using multiple reaction monitoring (MRM) in both the positive (LC method 1) and negative (LC methods 2 and 3) ion modes. During the development of this method, authentic reference compounds were used to determine LC retention times and to tune MRM transitions. Metabolite quantification was performed by integrating peak areas for specific MRM transitions using MultiQuant software (version 1.1; Applied Biosystems/SCIEX) and all integrated peaks were manually reviewed for quality. Extraction and quantification procedures were optimized prior to assessment of samples in this study to ensure measured intracellular and media metabolites were within the linear range of detection. Confirmation of the phosphoethanolamine peak was performed using an exogenous phosphoethanolamine standard (Sigma P0503).

[1] = intracellular, 50 μM, 6 h, over DMSO

Cc1cccc(CN2CCN(C(c3ccccc3)c3ccc(Cl)cc3)CC2)c1 (racemic) [Meclizine, meclizine hydrochloride]
Fold Change P1_M0003_2′-deoxycytidine [1]: 1.13 | Fold Change P1_M0007_Acetylcholine_p2_Met-146 [1]: 1.06 | Fold Change P1_M0008_Alanine [1]: 1.40 | Fold Change P1_M0009_Allantoin [1]: 0.91 | Fold Change P1_M0012_Arginine [1]: 1.01 | Fold Change P1_M0013_Argininosuccinate [1]: 1.08 | Fold Change P1_M0014_Asparagine [1]: 2.43 | Fold Change P1_M0015_Aspartate [1]: 1.25 | Fold Change P1_M0016_Betaine [1]: 1.08 | Fold Change P1_M0018_Carnosine [1]: 1.00 | Fold Change P1_M0019_Choline [1]: 0.90 | Fold Change P1_M0022_Creatine [1]: 1.47 | Fold Change P1_M0023_Creatinine [1]: 1.03 | Fold Change P1_M0026_Cysteine [1]: 1.38 | Fold Change P1_M0027_Cytidine [1]: 1.28 | Fold Change P1_M0030_DimethylGlycine [1]: 0.98 | Fold Change P1_M0034_GlutamicAcid_p2 [1]: 1.16 | Fold Change P1_M0035_Glutamine [1]: 1.05 | Fold Change P1_M0038_Histidine [1]: 1.07 | Fold Change P1_M0039_Homocysteine [1]: 0.95 | Fold Change P1_M0040_Homoserine [1]: 1.14 | Fold Change P1_M0041_Hydroxyproline [1]: 1.17 | Fold Change P1_M0042/M0044_Ile/Leu [1]: 0.91 | Fold Change P1_M0045_Lysine [1]: 1.08 | Fold Change P1_M0046_Metanephrine_p2 [1]: 0.87 | Fold Change P1_M0047_Methionine [1]: 1.06 | Fold Change P1_M0050_Niacinamide [1]: 1.08 | Fold Change P1_M0052_Ornithine [1]: 1.01 | Fold Change P1_M0053_Phenylalanine [1]: 1.09 | Fold Change P1_M0054_Phosphoethanolamine [1]: 38.21 | Fold Change P1_M0055_Proline [1]: 1.28 | Fold Change P1_M0056_Pyridoxine [1]: 1.15 | Fold Change P1_M0058_Serine [1]: 1.11 | Fold Change P1_M0062_Taurine [1]: 1.59 | Fold Change P1_M0063_Threonine [1]: 1.14 | Fold Change P1_M0066_Tryptophan [1]: 1.13 | Fold Change P1_M0067_Tyrosine [1]: 1.18 | Fold Change P1_M0068/M0037_Valine/GuanidinoaceticAcid [1]: 0.94 | Fold Change P1_M0070_Xanthosine [1]: 1.21 | Fold Change P1_M0142_Thymidine [1]: 0.97 | Fold Change P1_M0200_L-NMMA [1]: 0.59 | Fold Change P1_M0201/M0202_ADMA/SDMA [1]: 0.99 | Fold Change P1_M0204_Glycerol [1]: 0.94 | Fold Change P1_NM001-M68_Valine-d8 [1]: 1.01 | Fold Change P3_M0077_Acetoacetate [1]: 1.07 | Fold Change P3_M0081_ADP_p2 [1]: 1.43 | Fold Change P3_M0082_AMP [1]: 1.31 | Fold Change P3_M0100_FolicAcid [1]: 0.63 | Fold Change P3_M0102/M0103/M0196_F16DiP/F26DiP/G16DiP_D79_p2 [1]: 1.32 | Fold Change P3_M0104-M0107_F1P/F6P/G1P/G6P_D97 [1]: 0.97 | Fold Change P3_M0109-M0110_Glucose/Galactose [1]: 0.94 | Fold Change P3_M0111_GlutathioneOxidized [1]: 1.20 | Fold Change P3_M0112_GlutathioneReduced [1]: 1.74 | Fold Change P3_M0113_Glyceraldehyde [1]: 1.00 | Fold Change P3_M0114_Glycerol-3-P [1]: 1.21 | Fold Change P3_M0121_Hypoxanthine [1]: 1.17 | Fold Change P3_M0126_LacticAcid [1]: 0.99 | Fold Change P3_M0127_Lactose [1]: 0.42 | Fold Change P3_M0129_NAD [1]: 1.11 | Fold Change P3_M0130_NADP [1]: 1.24 | Fold Change P3_M0139_Sorbitol [1]: 0.92 | Fold Change P3_M0140_Sucrose [1]: 1.18 | Fold Change P3_M0145/M0146_UDP-Glucose/UDP-Galactose_p2 [1]: 1.33 | Fold Change P3_M0147_UDP-GlucuronicAcid [1]: 1.45 | Fold Change P3_M0149_Uracil [1]: 0.90 | Fold Change P3_M0150_Uridine [1]: 0.88 | Fold Change P3_M0152_Xanthine [1]: 0.85 | Fold Change P3_M0154_Methylmalonate [1]: 0.86 | Fold Change P3_M0164/M0175_FumaricAcid/MaleicAcid [1]: 1.07 | Fold Change P3_M0195_3-PhosphoglycericAcid [1]: 1.45 | Fold Change P3_NM002-M109_Glucose-13C6-d7 [1]: 1.02 | Fold Change P3_NM003-M161_CitricAcid-d4 [1]: 0.97 | Fold Change P4_CAP193_Met-165 [1]: 0.90 | Fold Change P4_M0083_ATP_D159 [1]: 1.27 | Fold Change P4_M0088_CMP [1]: 1.27 | Fold Change P4_M0089_CTP [1]: 1.32 | Fold Change P4_M0090_Cystathionine [1]: 1.53 | Fold Change P4_M0091_DCDP [1]: 1.09 | Fold Change P4_M0092_DCMP [1]: 1.17 | Fold Change P4_M0093_DCTP [1]: 1.02 | Fold Change P4_M0097_DUMP [1]: 0.88 | Fold Change P4_M0100_FolicAcid [1]: 0.84 | Fold Change P4_M0102/M0103/M0196_F16DiP/F26DiP/G16DiP_D79_p1 [1]: 1.14 | Fold Change P4_M0102/M0103/M0196_F16DiP/F26DiP/G16DiP_D241 [1]: 1.07 | Fold Change P4_M0108_GDP_p1 [1]: 1.38 | Fold Change P4_M0116_GTP [1]: 1.24 | Fold Change P4_M0121_Hypoxanthine [1]: 0.76 | Fold Change P4_M0123_Inosine_p2 [1]: 1.18 | Fold Change P4_M0126_LacticAcid [1]: 0.96 | Fold Change P4_M0137/M0138_Ribose-5-P/Ribulose-5-P_D97 [1]: 1.07 | Fold Change P4_M0140_Sucrose [1]: 1.10 | Fold Change P4_M0144_UDP [1]: 1.21 | Fold Change P4_M0148_UMP_p1 [1]: 0.83 | Fold Change P4_M0151_UTP [1]: 1.09 | Fold Change P4_M0157/M0156_Alpha-Keto-Glutarate/AdipicAcid [1]: 1.06 | Fold Change P4_M0158_AscorbicAcid [1]: 0.96 | Fold Change P4_M0159_CDP [1]: 1.52 | Fold Change P4_M0161/M0172_CitricAcid/IsocitricAcid [1]: 0.66 | Fold Change P4_M0162_Citrulline [1]: 0.87 | Fold Change P4_M0163_DHAP [1]: 0.98 | Fold Change P4_M0164/M0175_FumaricAcid/MaleicAcid [1]: 0.94 | Fold Change P4_M0165_GeranylPyrophosphate [1]: 1.18 | Fold Change P4_M0166_Glucuronate [1]: 0.77 | Fold Change P4_M0167_Glycerate-2-P_p1_Met-185 [1]: 1.09 | Fold Change P4_M0168_GlycochenodeoxycholicAcid [1]: 0.83 | Fold Change P4_M0169_GlycocholicAcid [1]: 0.68 | Fold Change P4_M0170_HippuricAcid [1]: 0.86 | Fold Change P4_M0173_Kynurenine [1]: 0.96 | Fold Change P4_M0176_MalicAcid [1]: 0.96 | Fold Change P4_M0180_OH-PhenylPyruvate [1]: 0.86 | Fold Change P4_M0183_Oxaloacetate [1]: 0.92 | Fold Change P4_M0184_PantothenicAcid [1]: 1.29 | Fold Change P4_M0185_Pyridoxal-5-phosphate_p1 [1]: 1.01 | Fold Change P4_M0187_SuccinicAcid [1]: 0.83 | Fold Change P4_M0188_TaurochenodeoxycholicAcid [1]: 0.76 | Fold Change P4_M0190_UricAcid [1]: 0.87 | Fold Change P4_M0191_Xanthosine-5′-monophosphate [1]: 1.75 | Fold Change P4_M0198_AconiticAcid(CAP203)_D129 [1]: 0.55 | Fold Change P4_M0205_PhosphoTyrosine [1]: 1.23 | Fold Change P4_M0206_Acetyl-CoA_P404 [1]: 1.22 | Fold Change P4_M0207_Malonyl-CoA_p1 [1]: 1.16 | Fold Change P4_M0210_Pyruvate [1]: 1.08 | Fold Change P4_NM002-M109_Glucose-13C6-d7 [1]: 1.15 | Fold Change P4_NM003-M161_CitricAcid-d4_p1 [1]: 1.02 | increase of intracellular phosphoethanolamine (six hours after treatment): ~35 fold
